Results published in patent publication US20120142701A1 (priority 2010, published 2012).

Columns and labels:
A/WSN/33 virus = assay: multicycle growth assay, viral titres by plaques assay in MDCK cells; assay type: cell-based, influenza A H1N1 (A/WSN/33); details: MDCK cells infected with A/WSN/33 at 0.001 MOI
Description: FIG. 3 is a plot of the antiviral activity of an aggregation-inducing agent nucleozin in multicycle growth assays. Madin-Darby Canine Kidney (MDCK) cells were infected with A/WSN/33 virus at 0.001 MOI in the presence or absence of nucleozin (0.1 or 1 μM). Viral titres were determined by plaques assay at the time indicated.

nucleoproteins [1] = molecular target: T1, nucleoproteins (Influenza A virus, UniProt P03466); assay: cell-based aggregation assay (immunofluorescence microscopy)
Text: A cell-based method for identifying compounds that promote aggregation includes:
a.) treating cells with one or more test compounds for a period of time;
b.) adding a fixing solution to stop protein translation;
c.) treating the cells with a fluorescent antibody that binds specifically to a protein, glycoprotein, or protein-nucleic acid complex;
d.) determining the presence or absence of aggregation,
wherein if aggregation is present in (d), the test compound is identified as a compound that may promote aggregation.
1. 25 μl of culture medium is added into each well of a 384-well plate followed by the addition of a test compound from a chemical library in each well. Then 25 μl of cells (6×10^3 cells/well) with undesirable physiological conditions in DMEM with 10% fetal bovine serum are seeded into each assay well. Plates are incubated at 37° C. in a 5% CO2 humid atmosphere for 1 day.
2. The supernatant is removed from each well, and washed with 50 μl of phosphate-buffered saline (PBS).
3. The PBS is aspirated off and 50 μl of a cold (4° C.) fixing solution of 3.65% formaldehyde in PBS was added to each well. The plate was incubated for 1 h at 4° C.
4. The fixing solution was aspirated off and 50 μl of 0.1% Nonidet P-40 solution in PBS was added to each well. […]
8. The aggregation of proteins, glycoproteins, or protein-nucleic acid complexes is detected by immunofluorescence microscopy.

nucleoproteins [2] = molecular target: T1, nucleoproteins; assay: cell-free aggregation assay (aggregation plate reader); assay type: biochemical
Description: A cell-free method for identifying compounds that promote aggregation of proteins, glycoproteins, or protein-nucleic acid complexes includes:
a.) combining a mixture of bovine serum albumin and one or more proteins, glycoproteins, or protein-nucleic acid complexes;
b.) adding the mixture of (a) to a multi-well plate;
c.) transferring a test compound to one or more wells of the multi-well plate;
d.) incubating the plate of (c); and
e.) determining the presence of aggregation,
wherein if aggregation is present in (e), the test compound is identified as a compound that may promote aggregation.
1. A mixture of 1 μM proteins, glycoproteins, or protein-nucleic acid complexes in 40 μg/ml bovine serum albumin is prepared.
2. A portion (20 μl) of the reaction mixture is added to each well of a 384-well mircotitre plate using automated liquid dispenser.
3. Chemicals from a chemical library are assayed by transferring approximately 100 nl to each assay well by a 384 solid pin array.
4. The plates are incubated at 37° C. for 6 hours and the extent of chemical induced aggregation is recorded by an aggregation plate reader.

[3] = system: A/Vietnam/1194/04 H5N1 virus; assay type: in vivo, BALB/c female mice
nucleoprotein [4] = assay type: biochemical
nucleoprotein [5] = molecular target: nucleoprotein (Influenza A virus, UniProt P15682); assay: cellular immunofluorescence microscopy in infected A549 cells; assay type: cell-based, influenza A/WSN/33 virus
nucleoprotein (Influenza A virus, UniProt P15682), sequence (P15682 whole entry): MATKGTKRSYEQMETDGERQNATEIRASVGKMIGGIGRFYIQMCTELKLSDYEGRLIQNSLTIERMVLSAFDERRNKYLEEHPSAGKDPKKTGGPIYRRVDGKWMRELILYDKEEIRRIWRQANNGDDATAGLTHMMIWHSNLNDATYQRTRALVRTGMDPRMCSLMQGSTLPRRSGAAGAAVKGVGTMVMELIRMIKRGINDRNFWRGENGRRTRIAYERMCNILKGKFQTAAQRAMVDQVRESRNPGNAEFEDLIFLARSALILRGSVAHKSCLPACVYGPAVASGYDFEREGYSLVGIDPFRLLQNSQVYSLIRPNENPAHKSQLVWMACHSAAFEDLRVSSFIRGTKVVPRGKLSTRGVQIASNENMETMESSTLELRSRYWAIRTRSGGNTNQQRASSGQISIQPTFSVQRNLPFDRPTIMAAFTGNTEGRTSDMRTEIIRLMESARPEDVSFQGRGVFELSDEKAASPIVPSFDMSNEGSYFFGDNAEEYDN

T1 sequence (P03466 whole entry): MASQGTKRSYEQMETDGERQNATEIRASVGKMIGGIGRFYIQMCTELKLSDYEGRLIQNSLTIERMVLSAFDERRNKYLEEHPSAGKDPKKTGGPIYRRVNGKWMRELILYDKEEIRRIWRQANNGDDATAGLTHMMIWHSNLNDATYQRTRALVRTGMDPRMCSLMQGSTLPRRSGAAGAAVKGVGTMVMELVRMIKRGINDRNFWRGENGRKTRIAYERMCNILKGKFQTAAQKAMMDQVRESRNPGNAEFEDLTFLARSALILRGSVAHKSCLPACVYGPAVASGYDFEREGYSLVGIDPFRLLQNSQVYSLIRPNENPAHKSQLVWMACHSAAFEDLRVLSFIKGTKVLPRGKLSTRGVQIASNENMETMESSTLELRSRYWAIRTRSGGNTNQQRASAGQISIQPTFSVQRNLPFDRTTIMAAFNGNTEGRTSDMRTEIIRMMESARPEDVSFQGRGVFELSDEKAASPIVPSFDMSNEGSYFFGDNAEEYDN

nucleozin
viral growth (viral titres) (A/WSN/33 virus; nucleozin 0.1 μM): suppressed viral growth | virus production (viral titres) (A/WSN/33 virus; nucleozin at 1 (unit cut off in the text)): completely inhibited virus production | aggregation of nucleoproteins (nucleoproteins [1]): aggregation of nucleoproteins was observed | aggregation of nucleoproteins (nucleoproteins [2]): aggregation of nucleoproteins was observed | survival rate versus untreated controls ([3]; mice after inoculation by influenza A virus H5N1 strain A/Vietnam/1194/04): significantly higher survival rate | animals surviving for more than 21 days ([3]; mice, two doses of nucleozin (250 nmole per dose) per day i.p. for 5 days, H5N1 A/Vietnam/1194/04 i.n.): 90% | amount of nucleoprotein running into the native gradient gel (nucleoprotein [4]): reduces the amount of nucleoprotein running into the native gradient gel in a dose-dependent manner | nucleoprotein-RNA complex that runs into the 4-12% polyacrylamide gradient gel (nucleoprotein [4]): dose-dependent reduction | nucleoprotein localisation at 3 hours post infection (nucleoprotein [5]; influenza A/WSN/33, 3 hours post infection): “halo” of dense nucleoprotein aggregates surrounding the perinuclear region in the cytoplasm | nucleoprotein localisation at 24 hours after infection (nucleoprotein [5]; influenza A/WSN/33, 24 hours after infection): nucleoprotein trapped in the cytoplasm was seen scattered randomly in host cells | nucleoprotein accumulation in the nucleus (nucleoprotein [5]; influenza A/WSN/33 virus infection): potent antagonist of nucleoprotein accumulation in the nucleus
